19 molecules from patent US11066369B2, “N-(pyridin-2-yl)pyridine-sulfonamide derivatives and their use in the treatment of disease” (Novartis AG, priority 2016, dated 2021) can be followed below.

pEC50: −log10 of the molar value. Read-outs that look alike come from different tables or passages of the source.

The target of the assay is T1, horseradish peroxidase (HRP) tagged delF508-CFTR (Homo sapiens, UniProt P13569, DEL508-508).
T1 construct: expressed in transfected cells
The assay can be described thus: Measurement of delF508-CFTR-HRP surface expression in CFBE41o- cells.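 On DelF508-CFTR-HRP Amax %: percent efficacy relative to reference corrector lumacaftor.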 It is filed as cell-based. The settings on record: for Emax: read-out: DelF508-CFTR-HRP Amax %; for pEC50: read-out: DelF508-CFTR-HRP EC50. The gist of the method:
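CFBE41o- bronchial epithelial cells stably expressing delF508-CFTR with HRP in the fourth extracellular loop; expression induced 48h with 500 ng/mL doxycycline, then compounds added (top 10 μM, 10-point 3-fold series, ≤0.5% DMSO) for 24h at 37° C. Surface HRP measured by luminescence with cell-impermeant substrate; EC50 from logistic fit of triplicates, plate-normalized to lowest concentration; efficacy also relative to a reference corrector.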

Setting [1] is: delF508-CFTR-HRP surface expression, CFBE41o- cells.
Where [2] appears, read: CFBE41o- cells, mean of at least two replicates.
[3] abbreviates: CFBE41o- cells, surface expression Amax.

T1 sequence (P13569 with tags, fused parts or gaps DEL508-508): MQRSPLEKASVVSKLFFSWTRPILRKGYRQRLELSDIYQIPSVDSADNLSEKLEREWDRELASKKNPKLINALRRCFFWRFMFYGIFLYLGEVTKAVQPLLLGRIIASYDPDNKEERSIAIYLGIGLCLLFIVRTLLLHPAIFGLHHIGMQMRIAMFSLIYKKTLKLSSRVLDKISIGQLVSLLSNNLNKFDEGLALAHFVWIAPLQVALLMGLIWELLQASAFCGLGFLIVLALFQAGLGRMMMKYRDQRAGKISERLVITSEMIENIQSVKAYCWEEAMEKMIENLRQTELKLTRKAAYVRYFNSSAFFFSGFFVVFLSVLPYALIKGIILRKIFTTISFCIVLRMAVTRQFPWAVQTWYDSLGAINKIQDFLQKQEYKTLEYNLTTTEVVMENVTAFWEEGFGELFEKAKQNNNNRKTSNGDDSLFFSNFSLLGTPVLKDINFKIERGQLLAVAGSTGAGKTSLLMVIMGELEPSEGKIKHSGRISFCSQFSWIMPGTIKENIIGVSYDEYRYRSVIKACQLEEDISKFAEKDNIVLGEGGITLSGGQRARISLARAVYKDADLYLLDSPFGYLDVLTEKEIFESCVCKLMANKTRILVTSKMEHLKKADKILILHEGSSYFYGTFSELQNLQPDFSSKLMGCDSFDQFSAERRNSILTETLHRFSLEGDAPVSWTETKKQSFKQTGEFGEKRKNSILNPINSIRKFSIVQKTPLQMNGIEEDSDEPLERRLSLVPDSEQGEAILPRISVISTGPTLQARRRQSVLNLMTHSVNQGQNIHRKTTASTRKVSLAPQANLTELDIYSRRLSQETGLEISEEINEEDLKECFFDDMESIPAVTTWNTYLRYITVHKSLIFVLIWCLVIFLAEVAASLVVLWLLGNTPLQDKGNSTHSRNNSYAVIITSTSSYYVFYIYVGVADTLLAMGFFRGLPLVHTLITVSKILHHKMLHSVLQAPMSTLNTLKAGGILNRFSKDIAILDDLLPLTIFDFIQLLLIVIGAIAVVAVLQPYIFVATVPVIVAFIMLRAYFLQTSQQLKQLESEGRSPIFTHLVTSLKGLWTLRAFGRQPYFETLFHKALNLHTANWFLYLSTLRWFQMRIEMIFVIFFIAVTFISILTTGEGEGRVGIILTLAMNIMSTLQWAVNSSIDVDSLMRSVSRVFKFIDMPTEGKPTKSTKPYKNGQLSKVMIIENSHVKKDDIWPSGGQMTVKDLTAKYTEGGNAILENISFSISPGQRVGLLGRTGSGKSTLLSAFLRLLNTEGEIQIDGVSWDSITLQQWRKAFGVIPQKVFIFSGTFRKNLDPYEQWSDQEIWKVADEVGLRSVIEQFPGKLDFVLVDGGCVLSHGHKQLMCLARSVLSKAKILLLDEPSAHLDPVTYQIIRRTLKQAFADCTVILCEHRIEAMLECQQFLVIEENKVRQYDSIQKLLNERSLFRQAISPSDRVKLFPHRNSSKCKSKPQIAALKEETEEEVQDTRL

As to `Cc1ccccc1-c1nc(NS(=O)(=O)c2cccc(N[C@H]3C[C@](C)(C(=O)O)C3)n2)ccc1C(F)(F)F` [Example 365, (1r,3s)-1-methyl-3-[(6-{[6-(2-methylphenyl)-5-(trifluoromethyl)pyridin-2-yl]sulfamoyl}pyridin-2-yl)amino]cyclobutane-1-carboxylic Acid], under setting [1], the Emax is 166% and the negative logarithm of the EC50 (pEC50) was 5.72.

As for `CCc1ccccc1-c1nc(NS(=O)(=O)c2cccc(N3CCC[C@@H](C(=O)O)C3)n2)ccc1C(F)(F)F` [Example 369, (R)-1-(6-(N-(6-(2-ethylphenyl)-5-(trifluoromethyl)pyridin-2-yl)sulfamoyl)pyridin-2-yl)piperidine-3-carboxylic Acid], under setting [1], the Emax turned out to be 962% and the pEC50 is 5.76.

For the molecule `Cc1ccccc1-c1nc(NS(=O)(=O)c2cccc(NC3CCC(C(=O)O)CC3)n2)ccc1C(F)(F)F` (stereo not shown) [Example 372, 4-((6-(N-(6-(o-tolyl)-5-(trifluoromethyl)pyridin-2-yl)sulfamoyl)pyridin-2-yl)amino)cyclohexanecarboxylic Acid], under setting [1], the Emax is 554% and the pEC50 was 5.65.

Consider `CC(C)c1ccccc1-c1nc(NS(=O)(=O)c2cccc(N3CCC[C@H](C(=O)O)C3)n2)ccc1C(F)(F)F` [Example 376, (S)-1-(6-(N-(6-(2-isopropylphenyl)-5-(trifluoromethyl)pyridin-2-yl)sulfamoyl)pyridin-2-yl)piperidine-3-carboxylic Acid], for which, under setting [1], the Emax was determined as 629% and the negative-log EC50 (pEC50) was 6.04.

With `CC(C)c1ccccc1-c1nc(NS(=O)(=O)c2cccc(N3CCCC(C)(C(=O)O)C3)n2)ccc1C(F)(F)F` (stereo not shown) [Example 377, 1-(6-(N-(6-(2-isopropylphenyl)-5-(trifluoromethyl)pyridin-2-yl)sulfamoyl)pyridin-2-yl)-3-methylpiperidine-3-carboxylic Acid], the pEC50 under setting [1] is 6.13.

As for `CC1(C(=O)O)CCN(c2cc(S(=O)(=O)Nc3ccc(C(F)(F)F)c(-c4ccccc4C4CCC4)n3)ccn2)CC1` [Example 378, 1-(4-(N-(6-(2-cyclobutylphenyl)-5-(trifluoromethyl)pyridin-2-yl)sulfamoyl)pyridin-2-yl)-4-methylpiperidine-4-carboxylic Acid], the pEC50 under setting [2] was 5.87. The Emax under setting [3] was determined as 272%.

As for `CC1(C(=O)O)CCN(c2cccc(S(=O)(=O)Nc3ccc(C(F)(F)F)c(-c4ccccc4C4CCCC4)n3)n2)CC1` [Example 379, 1-(6-(N-(6-(2-cyclopentylphenyl)-5-(trifluoromethyl)pyridin-2-yl)sulfamoyl)pyridin-2-yl)-4-methylpiperidine-4-carboxylic Acid], the negative-log EC50 (pEC50) under setting [2] was 5.97. Under “CFBE41o-”, the Emax worked out at 646%.

Consider `CCc1ccccc1-c1nc(S(=O)(=O)Nc2cccc(N3CCC(C)(C(=O)O)CC3)n2)ccc1C(F)(F)F` [Example 380, 1-(6-(6-(2-ethylphenyl)-5-(trifluoromethyl)pyridine-2-sulfonamido)pyridin-2-yl)-4-methylpiperidine-4-carboxylic Acid], for which the negative-log EC50 (pEC50) under setting [2] is 5.58. Also, under setting [3], the Emax amounted to 42.3%.

Consider `CC1(C(=O)O)CCN(c2cccc(S(=O)(=O)Nc3ccc(C(F)(F)F)c(-c4ccccc4OCC(F)(F)F)n3)n2)CC1` [Example 381, 4-methyl-1-(6-(N-(6-(2-(2,2,2-trifluoroethoxy)phenyl)-5-(trifluoromethyl)pyridin-2-yl)sulfamoyl)pyridin-2-yl)piperidine-4-carboxylic Acid], for which the pEC50 under setting [2] is 5.60. Moreover, the Emax under setting [3] is 284%.

For `CC(C)COc1ccccc1-c1nc(NS(=O)(=O)c2cccc(N3CCC(C)(C(=O)O)CC3)n2)ccc1C(F)(F)F` [Example 382, 1-(6-(N-(6-(2-isobutoxyphenyl)-5-(trifluoromethyl)pyridin-2-yl)sulfamoyl)pyridin-2-yl)-4-methylpiperidine-4-carboxylic Acid], the pEC50 under setting [2] is 6.15. For the same molecule, the Emax under setting [3] is 504%.

In the case of `C[C@@]1(C(=O)O)CCCN(c2cccc(S(=O)(=O)Nc3ccc(C(F)(F)F)c(-c4ccccc4C4CCC4)n3)n2)C1` [Example 383, (R)-1-(6-(N-(6-(2-cyclobutylphenyl)-5-(trifluoromethyl)pyridin-2-yl)sulfamoyl)pyridin-2-yl)-3-methylpiperidine-3-carboxylic Acid], the pEC50 under setting [2] is 6.30.

In the case of `CC(C)c1ccccc1-c1nc(NS(=O)(=O)c2cccc(N3CCC[C@@](C)(C(=O)O)C3)n2)ccc1C(F)(F)F` [Example 384, (R)-1-(6-(N-(6-(2-isopropylphenyl)-5-(trifluoromethyl)pyridin-2-yl)sulfamoyl)pyridin-2-yl)-3-methylpiperidine-3-carboxylic Acid], under setting [2], the pEC50 was 6.30.

For `CC(C)c1ccccc1-c1nc(NS(=O)(=O)c2cccc(N3CCC[C@](C)(C(=O)O)C3)n2)ccc1C(F)(F)F` [Example 385, (S)-1-(6-(N-(6-(2-isopropylphenyl)-5-(trifluoromethyl)pyridin-2-yl)sulfamoyl)pyridin-2-yl)-3-methylpiperidine-3-carboxylic Acid], the pEC50 under setting [2] was 6.09. Besides, the Emax under setting [3] stood at 668%.

As for `CC(C)COc1ccccc1-c1nc(NS(=O)(=O)c2cccc(N3CCCC(C)(C(=O)O)C3)n2)ccc1C(F)(F)F` (stereo not shown) [Example 386, 1-(6-(N-(6-(2-isobutoxyphenyl)-5-(trifluoromethyl)pyridin-2-yl)sulfamoyl)pyridin-2-yl)-3-methylpiperidine-3-carboxylic Acid], the pEC50 under setting [2] was 6.22.

Consider `CCc1ccccc1-c1nc(NS(=O)(=O)c2cccc(N3CCCC(C)(C(=O)O)C3)n2)ccc1Cl` (stereo not shown) [Example 387, 1-(6-(N-(5-chloro-6-(2-ethylphenyl)pyridin-2-yl)sulfamoyl)pyridin-2-yl)-3-methylpiperidine-3-carboxylic Acid], for which the pEC50 under setting [2] is 5.79. Also, the Emax under setting [3] was found to be 588%.

For the molecule `CC(C)c1ccccc1-c1nc(NS(=O)(=O)c2cccc(N3CCCC(C)(C(=O)O)C3)n2)ccc1Cl` (stereo not shown) [Example 388, 1-(6-(N-(5-chloro-6-(2-isopropylphenyl)pyridin-2-yl)sulfamoyl)pyridin-2-yl)-3-methylpiperidine-3-carboxylic Acid], under setting [2], the pEC50 was 5.99. Under setting [3], the Emax is 928%.

Take `CC1(C(=O)O)CCCN(c2cccc(S(=O)(=O)Nc3ccc(Cl)c(-c4ccccc4C4CCC4)n3)n2)C1` (stereo not shown) [Example 389, 1-(6-(N-(5-chloro-6-(2-cyclobutylphenyl)pyridin-2-yl)sulfamoyl)pyridin-2-yl)-3-methylpiperidine-3-carboxylic Acid]: the pEC50 under setting [2] is 5.98. Besides, the Emax under setting [3] amounted to 749%.

Turning to `CC1(C(=O)O)CCCN(c2cccc(S(=O)(=O)Nc3ccc(Cl)c(-c4ccccc4C(C)(C)C)n3)n2)C1` (stereo not shown) [Example 390, 1-(6-(N-(6-(2-(tert-butyl)phenyl)-5-chloropyridin-2-yl)sulfamoyl)pyridin-2-yl)-3-methylpiperidine-3-carboxylic Acid], the negative-log EC50 (pEC50) under setting [2] was 6.12. Also, under setting [3], the Emax stood at 889%.

Turning to `C[C@@]1(C(=O)O)CCCN(c2cccc(S(=O)(=O)Nc3ccc(Cl)c(-c4ccccc4C4CCC4)n3)n2)C1` [Example 391, (R)-1-(6-(N-(5-chloro-6-(2-cyclobutylphenyl)pyridin-2-yl)sulfamoyl)pyridin-2-yl)-3-methylpiperidine-3-carboxylic Acid], the pEC50 under setting [2] is 6.28. Moreover, the Emax under setting [3] is 503%.
